Test results from patent US9200319B2, “Nucleotides and nucleosides and methods for their use in DNA sequencing” (Lasergen, Inc., priority 2008, dated 2015).
Several values for one entry are separate records, joined by “and”; a condition that tells them apart may be missing. Equal values may be shown once. Read-outs that look alike come from different tables or passages of the source.

Columns and labels:
[1] = biological target: T1, THERMINATOR™ DNA polymerase (Thermococcus sp., UniProt Q56366, A485L/D141A/E143A); assay: biochemical; set-up: species or system Thermococcus species 9° N-7
T1 construct: purchased New England Biolabs
T1 sequence (Q56366 whole entry D141A/E143A/A485L): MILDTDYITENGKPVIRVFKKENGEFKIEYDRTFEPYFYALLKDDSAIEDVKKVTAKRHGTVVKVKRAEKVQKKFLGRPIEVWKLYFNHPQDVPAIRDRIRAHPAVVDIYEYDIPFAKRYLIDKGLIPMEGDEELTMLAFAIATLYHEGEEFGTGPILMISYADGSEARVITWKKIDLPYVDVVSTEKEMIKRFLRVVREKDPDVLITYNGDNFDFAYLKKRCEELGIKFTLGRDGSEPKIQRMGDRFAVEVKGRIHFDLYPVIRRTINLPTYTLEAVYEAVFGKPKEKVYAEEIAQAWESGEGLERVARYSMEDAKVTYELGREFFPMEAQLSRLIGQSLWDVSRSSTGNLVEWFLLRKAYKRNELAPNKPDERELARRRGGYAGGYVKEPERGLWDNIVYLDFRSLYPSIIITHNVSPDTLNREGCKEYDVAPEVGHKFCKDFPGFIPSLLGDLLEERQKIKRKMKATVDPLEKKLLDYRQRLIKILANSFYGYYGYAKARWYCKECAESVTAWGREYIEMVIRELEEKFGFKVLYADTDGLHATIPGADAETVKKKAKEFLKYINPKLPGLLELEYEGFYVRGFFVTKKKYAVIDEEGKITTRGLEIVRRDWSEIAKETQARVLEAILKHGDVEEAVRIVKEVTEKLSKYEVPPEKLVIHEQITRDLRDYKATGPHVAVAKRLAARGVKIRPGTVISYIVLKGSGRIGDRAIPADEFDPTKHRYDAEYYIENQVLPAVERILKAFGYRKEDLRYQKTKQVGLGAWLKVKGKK
Method: Natural and modified nucleotides were tested for incorporation efficiency using the “polymerase end point assay” (Wu et al., 2007, which is incorporated herein by reference). This assay examines incorporation efficiency on matched and mismatched template bases. Incorporation efficiency is measured by determining the concentration at which the compound incorporates on half the primer-template complexes (IC50). Titrations of increasing compound concentration were performed to generate curves from which the IC50 can be determined.
(§1) The sequence of the template DNA is selected depending on which compound will be tested. For example, the first interrogation base after the primer in the template sequence is the complement base of the compound when measuring incorporation efficiency, and one of three mismatched bases when measuring mismatch discrimination properties.
(§2) To the annealed reaction, a DNA polymerase (e.g., THERMINATOR™ DNA polymerase, 0.25 units per reaction, New England Biolabs), 1× Thermopol Buffer, and a known concentration of either natural or modified nucleotide are added to each 10 μL reaction and incubated at 75° C. for 10 minutes, cooled on ice, and quenched with 10 μL of stop solution (98% formamide: 10 mM Na2EDTA, pH=8.0, 25 mg/ml Blue Dextran). Stopped reactions are heated to 75° C. for 30 seconds to denature the DNA, and then placed on ice. The extension products are analyzed on a 10% Long Ranger (Lonza) polyacrylamide gel using an ABI model 377 DNA sequencer. Additional details are provided in Example 1, below.
Polymerase Assays. Natural and modified nucleotides were tested for incorporation efficiency using the “polymerase end point assay” (Wu et al., 2007, which is incorporated herein by reference). This assay examines incorporation efficiency on matched and mismatched template bases. Incorporation efficiency is measured by determining the concentration at which the compound incorporates on half the primer-template complexes (IC50). Titrations of increasing compound concentration were performed to generate curves from which the IC50 can be determined.
The assay is performed by first annealing 5 nM of BODIPY-FL labeled primer with 40 nM template DNA in 1× Thermopol Buffer (20 mM Tris-HCl, pH 8.8; 10 mM (NH4)2SO4; 10 mM KCl; 2 mM MgSO4; 0.1% Triton X-100, New England BioLabs).
as §1, with “The temperature cycle to complete primer annealing is 80° C. for 30 seconds, 57° C. for 30 seconds, then cooling to 4° C. The” for “The”
as §2, with “sequencer.” for “sequencer. Additional details are provided in Example 1, below.”

[2] = biological target: T1, THERMINATOR™ DNA polymerase; assay: termination assay, weighted sum analysis on homopolymer repeat template; format: biochemical, Thermococcus species 9° N-7; settings: 1.0 = complete termination after a single incorporation
Method: A weighted sum of 1.0 represents complete termination after a single incorporation, while a value greater than 1.0 indicates incorporation beyond the +1 position (e.g. nucleotide read through). […] The assay is performed as described above for the polymerase end-point assay, except that the template used is a homopolymer repeat, thereby allowing for multiple incorporations of a given nucleotide compound.

[3] = adjusted IC50 used to set the concentrations of the termination assay, read-out: Adj IC50 Conc
[4] = concentration at which the compound incorporates on half the primer-template complexes, complement template base, read-out: IC50 for incorporation
[5] = Adj IC50 Conc (nM), adjusted IC50 used to set the concentrations of the termination assay
[6] = IC50 for incorporation, concentration at which the compound incorporates on half the primer-template complexes, complement template base

For `CC(OCc1cn([C@H]2C[C@H](O)[C@@H](COP(=O)(O)OP(=O)(O)OP(=O)(O)O)O2)c(=O)[nH]c1=O)c1ccccc1[N+](=O)[O-]` (mixture of isomers) [2p043, 5-(α-methyl-nitrobenzyl-oxymethyl)-2′-dUTP], the IC50 [1, 3] was 1.7 nM, the IC50 [1, 4] was 1.7 ± 0.2 nM and the “Average Weighted Sum ± SD” value ([2]; 1x IC50) was 0.53 ± 0.06. The “Average Weighted Sum ± SD” value ([2]; 5x IC50) was 1.1 ± 0.0 and the “Average Weighted Sum ± SD” value ([2]; 25x IC50) was 1.7±0.1.

With `CC(C)C(OCc1cn([C@H]2C[C@H](O)[C@@H](COP(=O)(O)OP(=O)(O)OP(=O)(O)O)O2)c(=O)[nH]c1=O)c1ccccc1[N+](=O)[O-]` (mixture of isomers) [2p148, 5-(α-isopropyl-2-nitrobenzyloxy)methyl-2′-dUTP] the IC50 [1, 5] was 2.1 nM, the IC50 [1, 4] was 2.3 ± 0.1 nM and the “Average Weighted Sum ± SD” value ([2]; 1x IC50) was 0.59 ± 0.02. For the same compound, the “Average Weighted Sum ± SD” value ([2]; 5x IC50) was 0.99 ± 0.01 and the “Average Weighted Sum ± SD” value ([2]; 25x IC50) was 1.0 and 1.0 ± 0.01.

With `CC(C)C(OCc1cn([C@H]2C[C@H](O)[C@@H](COP(=O)(O)OP(=O)(O)OP(=O)(O)O)O2)c(=O)[nH]c1=O)c1ccccc1` (mixture of isomers) [5p111, 5-(α-isopropyl-benzyloxy)methyl-2′-dUTP] the IC50 [1, 5] was 0.8 nM, the IC50 [1, 6] was 0.8 nM and the “Average Weighted Sum ± SD” value ([2]; 1x IC50) was 0.44 ± 0.02. The “Average Weighted Sum ± SD” value ([2]; 5x IC50) was 0.96 ± 0.01 and the “Average Weighted Sum ± SD” value ([2]; 25x IC50) was 1.1 and 1.1 ± 0.03.

Compound `CC(C)(C)C(OCc1cn([C@H]2C[C@H](O)[C@@H](COP(=O)(O)OP(=O)(O)OP(=O)(O)O)O2)c(=O)[nH]c1=O)c1ccccc1[N+](=O)[O-]` (single isomer, unassigned) [3p075, 5-[(R or S)-1-(2-nitrophenyl)-2,2-dimethyl-1-propyloxy]methyl-2′-deoxyuridine-5′-triphosphate] has an IC50 [1, 6] of 3 nM.

`Nc1ccn([C@H]2C[C@H](O)[C@@H](COP(=O)(O)OP(=O)(O)OP(=O)(O)O)O2)c(=O)n1` [dCTP, reference compound] showed an IC50 [1, 4] of 3 ± 0.6 nM.

With `CC(Oc1nc(N)nc2c1ncn2[C@H]1C[C@H](O)[C@@H](COP(=O)(O)OP(=O)(O)OP(=O)(O)O)O1)c1ccccc1[N+](=O)[O-]` (mixture of isomers) [2p143, O^6-(α-methyl-2-nitrobenzyl)-2′-dGTP] the IC50 [1, 6] was 10 nM.

`CC(C)(C)c1ccccc1COCc1cn([C@H]2C[C@H](O)[C@@H](COP(=O)(O)OP(=O)(O)OP(=O)(O)O)O2)c(=O)[nH]c1=O` [6p024, 5-(2-tert-butylbenzyloxy)methyl-2′-deoxyuridine-5′-triphosphate] was tested, and the IC50 [1, 5] was 0.7 nM, the IC50 [1, 6] was 0.7 nM and the “Average Weighted Sum ± SD” value ([2]; 1x IC50) was 0.44 ± 0.1. The “Average Weighted Sum ± SD” value ([2]; 5x IC50) was 1.2 ± 0.1 and the “Average Weighted Sum ± SD” value ([2]; 25x IC50) was 1.9 ± 0.1.

For `CC(C)c1ccccc1COCc1cn([C@H]2C[C@H](O)[C@@H](COP(=O)(O)OP(=O)(O)OP(=O)(O)O)O2)c(=O)[nH]c1=O` [5p149, 5-(2-isopropylbenzyloxy)methyl-2′-deoxyuridine-5′-triphosphate], the IC50 [1, 5] was 1.4 nM, the IC50 [1, 6] was 1.4 nM and the “Average Weighted Sum ± SD” value ([2]; 1x IC50) was 0.53 ± 0.1. The “Average Weighted Sum ± SD” value ([2]; 5x IC50) was 1.3 ± 0.1 and the “Average Weighted Sum ± SD” value ([2]; 25x IC50) was 2.2 ± 0.2.

With `O=c1[nH]c(=O)n([C@H]2C[C@H](O)[C@@H](COP(=O)(O)OP(=O)(O)OP(=O)(O)O)O2)cc1COCc1ccccc1-c1ccccc1` [6p010, 5-(2-phenylbenzyloxy)methyl-2′-deoxyuridine-5′-triphosphate] the IC50 [1, 5] was 1.4 nM, the IC50 [1, 6] was 1.4 nM and the “Average Weighted Sum ± SD” value ([2]; 1x IC50) was 0.46 ± 0.1. For the same compound, the “Average Weighted Sum ± SD” value ([2]; 5x IC50) was 1.1 ± 0.1 and the “Average Weighted Sum ± SD” value ([2]; 25x IC50) was 1.7 and 1.7 ± 0.3.

Work on “C^7-(α-isopropyl-2-nitrobenzyloxy)methyl-2′-dATP-6-CR110 [5p130-LP2]” yielded an IC50 [1, 4] of 15 ± 3 nM.

In the case of “6-ROX labeled 7-{(R)-1-[4-(3-amino-1-propynyl)-2-nitrophenyl]-2-methyl-propyloxy}methyl-7-deaza-2′-deoxyguanosine-5′-triphosphate [6p034]”, the IC50 [1, 4] is reported as 7.4 ± 0.1 nM.

“5-(α-isopropyl-2-nitrobenzyloxy)methyl-2′-dUTP-6-ROX [6p044]” gave an IC50 [1, 4] of 18 ± 1 nM.

With `Cc1ccccc1COCc1cn([C@H]2C[C@H](O)[C@@H](COP(=O)(O)OP(=O)(O)OP(=O)(O)O)O2)c(=O)[nH]c1=O` [5p147, 5-(2-methylbenzyloxy)methyl-2′-deoxyuridine-5′-triphosphate] the IC50 [1, 5] was 1.4 nM, the IC50 [1, 6] was 1.4 nM and the “Average Weighted Sum ± SD” value ([2]; 1x IC50) was 0.51 ± 0.1. The “Average Weighted Sum ± SD” value ([2]; 5x IC50) was 1.5 ± 0.3 and the “Average Weighted Sum ± SD” value ([2]; 25x IC50) was 2.6 ± 0.4.

With `CC(C)C(Nc1ncnc2c1ncn2[C@H]1C[C@H](O)[C@@H](COP(=O)(O)OP(=O)(O)OP(=O)(O)O)O1)c1ccccc1[N+](=O)[O-]` (single isomer, unassigned) [6p063, N^6-(α-isopropyl-2-nitrobenzyl)-2′-dATP] the IC50 [1, 6] was 12 ± 1 nM.

Compound `CC(C)[C@H](OCc1cn([C@H]2C[C@H](O)[C@@H](COP(=O)(O)OP(=O)(O)OP(=O)(O)O)O2)c(=O)nc1N)c1ccccc1[N+](=O)[O-]` [3p065, 5-[(S)-1-(2-nitrophenyl)-2-methyl-propyloxy]methyl-2′-deoxycytidine-5′-triphosphate] has an IC50 [1, 6] of 1.1 ± 0.1 nM.

With `Nc1nc(OCc2ccccc2[N+](=O)[O-])c2ncn([C@H]3C[C@H](O)[C@@H](COP(=O)(O)OP(=O)(O)OP(=O)(O)O)O3)c2n1` [2p108, O^6-(2-nitrobenzyl)-2′-dGTP] the IC50 [1, 6] was 4 ± 0.7 nM.

With `Cc1cn([C@H]2C[C@H](O)[C@@H](COP(=O)(O)OP(=O)(O)OP(=O)(O)O)O2)c(=O)[nH]c1=O` [dTTP, reference compound] the IC50 [1, 3] was 2.1 nM, the “Average Weighted Sum ± SD” value ([2]; 1x IC50) was 0.68 and the “Average Weighted Sum ± SD” value ([2]; 5x IC50) was 3.0. The “Average Weighted Sum ± SD” value ([2]; 25x IC50) was 12.2.

`Nc1ncnc2c1c(COCc1ccccc1[N+](=O)[O-])cn2[C@H]1C[C@H](O)[C@@H](COP(=O)(O)OP(=O)(O)OP(=O)(O)O)O1` [5p085, 7-(2-nitrobenzyloxy)methyl-7-deaza-2′-deoxyadenosine-5′-triphosphate] gave an IC50 [1, 6] of 3.6 ± 0.3 nM.

`CC(C)[C@H](OCc1cn([C@H]2C[C@H](O)[C@@H](COP(=O)(O)OP(=O)(O)OP(=O)(O)O)O2)c(=O)[nH]c1=O)c1ccccc1[N+](=O)[O-]` [3p063, 5-[(S)-1-(2-nitrophenyl)-2-methyl-propyloxy]methyl-2′-deoxyuridine-5′-triphosphate] gave an IC50 [1, 6] of 2 nM.

`Cc1cccc(C)c1COCc1cn([C@H]2C[C@H](O)[C@@H](COP(=O)(O)OP(=O)(O)OP(=O)(O)O)O2)c(=O)[nH]c1=O` [6p015, 5-(2,6-dimethylbenzyloxy)methyl-2′-deoxyuridine-5′-triphosphate] was tested, and the IC50 [1, 5] was 1.4 nM, the IC50 [1, 6] was 1.4 nM and the “Average Weighted Sum ± SD” value ([2]; 1x IC50) was 0.56 ± 0.1. For the same compound, the “Average Weighted Sum ± SD” value ([2]; 5x IC50) was 1.5 ± 0.1 and the “Average Weighted Sum ± SD” value ([2]; 25x IC50) was 2.2 ± 0.1.

With “5-(α-isopropyl-2-nitrobenzyloxy)methyl-2′-dUTP-6-FAM [6p094]” the IC50 [1, 4] was 8.1 ± 0.2 nM.

Compound “5-(α-isopropyl-2-nitrobenzyloxy)methyl-2′-dUTP-5-R6G [6p005]” has an IC50 [1, 4] of 15 ± 1 nM.

In the case of `CC(Nc1ncnc2c1ncn2[C@H]1C[C@H](O)[C@@H](COP(=O)(O)OP(=O)(O)OP(=O)(O)O)O1)c1ccccc1[N+](=O)[O-]` (mixture of isomers) [3p006, N^6-(α-methyl-2-nitrobenzyl)-2′-dATP], the IC50 [1, 6] is reported as 8.5 ± 1.8 nM.
